Assay results: patent US20260297081A1, “COMPOUNDS AND METHODS OF TREATING CANCERS” (Cullgen Inc., priority 2023, published 2026)

Assays:
Format in all cases: cell-based
[1] = target: CDK4 (Homo sapiens, UniProt P11802+Q16531); test: CDK4 percentage degradation in Calu-1 cells (Table 6); parameters: Cells that express cyclin D1-3 and CDK4/6 proteins were treated with heterobifunctional compounds; endogenous in cells; host or cells: Calu-1; settings: 16 hours; for inhibition at 0.04 µM: 40 nM; for inhibition at 0.2 µM: 200 nM
Sequence of CDK4 (P11802 2-303 limits assumed): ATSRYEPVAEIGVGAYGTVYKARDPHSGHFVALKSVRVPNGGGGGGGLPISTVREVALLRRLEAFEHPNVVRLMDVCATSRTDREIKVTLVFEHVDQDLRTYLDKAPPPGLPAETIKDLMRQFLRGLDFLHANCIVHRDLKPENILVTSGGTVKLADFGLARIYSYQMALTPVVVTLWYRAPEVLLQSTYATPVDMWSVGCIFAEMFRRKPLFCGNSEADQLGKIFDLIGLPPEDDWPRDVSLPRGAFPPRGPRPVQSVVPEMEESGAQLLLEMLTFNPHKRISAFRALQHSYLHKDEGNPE
Sequence of CDK4 (P24385 whole entry partner): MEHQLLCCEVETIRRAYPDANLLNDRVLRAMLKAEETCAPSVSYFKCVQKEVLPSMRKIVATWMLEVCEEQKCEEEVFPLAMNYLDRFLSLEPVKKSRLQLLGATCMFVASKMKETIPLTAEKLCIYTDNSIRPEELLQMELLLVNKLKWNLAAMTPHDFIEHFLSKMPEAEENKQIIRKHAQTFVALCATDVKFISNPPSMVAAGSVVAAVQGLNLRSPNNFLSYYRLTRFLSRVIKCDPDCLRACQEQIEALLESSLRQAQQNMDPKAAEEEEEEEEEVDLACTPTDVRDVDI
Sequence of CDK4 (Q16531 2-1140 limits assumed): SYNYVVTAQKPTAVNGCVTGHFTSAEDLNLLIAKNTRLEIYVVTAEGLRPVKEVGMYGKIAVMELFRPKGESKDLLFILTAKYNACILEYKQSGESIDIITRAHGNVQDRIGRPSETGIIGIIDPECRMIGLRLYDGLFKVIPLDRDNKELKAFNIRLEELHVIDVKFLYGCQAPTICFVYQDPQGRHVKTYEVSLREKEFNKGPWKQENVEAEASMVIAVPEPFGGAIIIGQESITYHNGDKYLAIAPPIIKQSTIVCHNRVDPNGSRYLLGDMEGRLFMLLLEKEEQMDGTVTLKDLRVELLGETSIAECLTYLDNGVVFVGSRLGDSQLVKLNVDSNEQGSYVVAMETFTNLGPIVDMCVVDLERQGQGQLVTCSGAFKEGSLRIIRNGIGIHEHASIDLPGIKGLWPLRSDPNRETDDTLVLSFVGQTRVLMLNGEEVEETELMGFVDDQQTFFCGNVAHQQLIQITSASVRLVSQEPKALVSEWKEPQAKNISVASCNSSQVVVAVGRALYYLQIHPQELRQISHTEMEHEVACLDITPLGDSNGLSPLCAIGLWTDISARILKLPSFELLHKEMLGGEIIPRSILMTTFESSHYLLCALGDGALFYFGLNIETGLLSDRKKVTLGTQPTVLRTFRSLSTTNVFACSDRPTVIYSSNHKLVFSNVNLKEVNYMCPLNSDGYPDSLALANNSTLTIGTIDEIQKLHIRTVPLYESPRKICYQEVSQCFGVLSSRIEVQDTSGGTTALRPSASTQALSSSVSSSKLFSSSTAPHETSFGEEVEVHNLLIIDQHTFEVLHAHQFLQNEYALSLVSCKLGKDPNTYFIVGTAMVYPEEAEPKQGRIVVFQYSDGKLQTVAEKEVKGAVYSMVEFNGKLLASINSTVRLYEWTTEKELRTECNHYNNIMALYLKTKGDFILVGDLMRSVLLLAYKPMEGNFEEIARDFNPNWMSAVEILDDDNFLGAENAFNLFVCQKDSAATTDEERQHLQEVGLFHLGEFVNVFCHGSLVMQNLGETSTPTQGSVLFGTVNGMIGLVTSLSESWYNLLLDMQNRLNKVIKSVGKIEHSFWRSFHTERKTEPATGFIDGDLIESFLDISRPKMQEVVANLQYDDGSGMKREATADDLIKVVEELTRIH
Procedure, shortened: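 Calu-1 cells exposed to heterobifunctional compounds at 40 nM or 200 nM for 16 h. Cyclin D1 and CDK4 levels measured by Western blot of RIPA lysates (BCA-normalised loading), bands quantified by densitometry and expressed as percentage degradation.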

[2] = test system: T47D cells; test: Anti-proliferation (viability) of ER+ breast cancer T47D cells, 6 days (Table 7, FIG. 2B); settings: Homo sapiens, 144 h; T47D cells, 6 days, 10-point serial dilution; read-out: GI IC50 in T47D
Method: To evaluate anti-proliferation activities of heterobifunctional compounds, NSCLC Calu-1 or ER+ breast cancer T47D cells were treated with selected heterobifunctional compounds following a 10-point serial dilution for 3 or 6 days, respectively.
To verify that heterobifunctional compound-mediated degradation is dependent on the binding to CDK4-cyclin D complex, a negative control compound, CPD-143, which is derived from active heterobifunctional compound CPD-10 was designed. CPD-143 bears the same DDB1 ligand and linker as CPD-10 but with a modified warhead to impair the binding of the control compound to CDK4.

[3] = test system: Calu-1 cells; test: Anti-proliferation (viability) of NSCLC Calu-1 cells, 3 days (Table 7, FIG. 2B); settings: Homo sapiens, 72 h; Calu-1 cells, 3 days, 10-point serial dilution; read-out: GI IC50 in Calu-1
Procedure, shortened: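 Cells were exposed to heterobifunctional compounds across a 10-point serial dilution, for 3 days with Calu-1 and 6 days with T47D. A negative control was included that keeps the DDB1 ligand and linker but carries a modified warhead that impairs CDK4 binding.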

[4] = test system: MCF7 cells; test: Anti-proliferation (viability) of MCF7 cells (Table 7, FIG. 2B); settings: Homo sapiens, MCF7, MCF7 cells, 3-6 days, 10-point serial dilution; read-out: GI IC50 in MCF-7

Row | inhibition at 0.04 µM [1] [%] | inhibition at 0.2 µM [1] [%] | IC50 [2] [nM] | IC50 [3] [nM] | IC50 [4] [nM] | SMILES
1 | 50 to 80 | 50 to 80 | 50 to 100 | 10 to 50 | > 100 | CNc1ccc(C(=O)Nc2ccc(N(C)C)nn2)c(Nc2cc(CCNC(=O)CN3CCN(c4ccc(Nc5ncc6c(C)c(C(C)=O)c(=O)n(C7CCCC7)c6n5)nc4)CC3)no2)n1 [CPD-26, 2-((3-(2-(2-(4-(6-((6-Acetyl-8-cyclopentyl-5-methyl-7-oxo-7,8-dihydropyrido[2,3-d]pyrimidin-2-yl)amino)pyridin-3-yl)piperazin-1-yl)acetamido)ethyl)isoxazol-5-yl)amino)-N-(6-(dimethylamino)pyridazin-3-yl)-6-(methylamino)nicotinamide]
2 | > 80 | > 80 | 50 to 100 | ≤ 10 | 50 to 100 | CC(=O)c1c(C)c2cnc(Nc3ccc(N4CCN(CC(=O)NCCCCCNc5nc(C6CC6)ccc5C(=O)Nc5ccc(N(C)C)nn5)CC4)cn3)nc2n(C2CCCC2)c1=O [CPD-27, 2-((5-(2-(4-(6-((6-Acetyl-8-cyclopentyl-5-methyl-7-oxo-7,8-dihydropyrido[2,3-d]pyrimidin-2-yl)amino)pyridin-3-yl)piperazin-1-yl)acetamido)pentyl)amino)-6-cyclopropyl-N-(6-(dimethylamino)pyridazin-3-yl)nicotinamide]
3 | 50 to 80 | > 80 | 50 to 100 | 10 to 50 | > 100 | CNc1ccc(C(=O)Nc2ccc(N(C)C)nn2)c(NCCCCn2cc(CN3CCN(c4ccc(Nc5ncc6c(C)c(C(C)=O)c(=O)n(C7CCCC7)c6n5)nc4)CC3)nn2)n1 [CPD-30, 2-((4-(4-((4-(6-((6-Acetyl-8-cyclopentyl-5-methyl-7-oxo-7,8-dihydropyrido[2,3-d]pyrimidin-2-yl)amino)pyridin-3-yl)piperazin-1-yl)methyl)-1H-1,2,3-triazol-1-yl)butyl)amino)-N-(6-(dimethylamino)pyridazin-3-yl)-6-(methylamino)nicotinamide]
4 | 50 to 80 | > 80 | 50 to 100 | 10 to 50 | > 100 | CNc1ccc(C(=O)Nc2ccc3c(ccn3C)n2)c(NCCCCCNC(=O)CN2CCN(c3ccc(Nc4ncc5c(C)c(C(C)=O)c(=O)n(C6CCCC6)c5n4)nc3)CC2)n1 [CPD-33, 2-((5-(2-(4-(6-((6-Acetyl-8-cyclopentyl-5-methyl-7-oxo-7,8-dihydropyrido[2,3-d]pyrimidin-2-yl)amino)pyridin-3-yl)piperazin-1-yl)acetamido)pentyl)amino)-N-(1-methyl-1H-pyrrolo[3,2-b]pyridin-5-yl)-6-(methylamino)nicotinamide]
5 | > 80 | > 80 | ≤ 50 | ≤ 10 | < 50 | CNc1ccc(C(=O)Nc2ccc(N(C)C)nn2)c(NC2CC(CCNC(=O)CN3CCN(c4ccc(Nc5ncc6c(C)c(C(C)=O)c(=O)n(C7CCCC7)c6n5)nc4)CC3)C2)n1 (stereo not shown) [CPD-34, 2-((3-(2-(2-(4-(6-((6-Acetyl-8-cyclopentyl-5-methyl-7-oxo-7,8-dihydropyrido[2,3-d]pyrimidin-2-yl)amino)pyridin-3-yl)piperazin-1-yl)acetamido)ethyl)cyclobutyl)amino)-N-(6-(dimethylamino)pyridazin-3-yl)-6-(methylamino)nicotinamide]
6 | 50 to 80 | > 80 | 50 to 100 | ≤ 10 | > 100 | CNc1ccc(C(=O)Nc2ccc3ncn(C)c3n2)c(NCCCCCNC(=O)CN2CCN(c3ccc(Nc4ncc5c(C)c(C(C)=O)c(=O)n(C6CCCC6)c5n4)nc3)CC2)n1 [CPD-38, 2-((5-(2-(4-(6-((6-Acetyl-8-cyclopentyl-5-methyl-7-oxo-7,8-dihydropyrido[2,3-d]pyrimidin-2-yl)amino)pyridin-3-yl)piperazin-1-yl)acetamido)pentyl)amino)-N-(3-methyl-3H-imidazo[4,5-b]pyridin-5-yl)-6-(methylamino)nicotinamide]

Continued, compound first:

Row | SMILES | inhibition at 0.04 µM [1] [%] | inhibition at 0.2 µM [1] [%] | IC50 [2] [nM] | IC50 [3] [nM] | IC50 [4] [nM]
7 | CNc1ccc(C(=O)Nc2ccc(OC)nn2)c(NCCCCCCCNC(=O)CN2CCN(c3ccc(Nc4ncc5c(C)c(C(C)=O)c(=O)n(C6CCCC6)c5n4)nc3)CC2)n1 [CPD-11, 2-((7-(2-(4-(6-((6-Acetyl-8-cyclopentyl-5-methyl-7-oxo-7,8-dihydropyrido[2,3-d]pyrimidin-2-yl)amino)pyridin-3-yl)piperazin-1-yl)acetamido)heptyl)amino)-N-(6-methoxypyridazin-3-yl)-6-(methylamino)nicotinamide] | 50 to 80 | > 80 | 50 to 100 | 10 to 50 | < 50
8 | CNc1ccc(C(=O)Nc2ccc(N(C)C)nn2)c(NCCCCCNC(=O)C(C)N2CCN(c3ccc(Nc4ncc5c(C)c(C(C)=O)c(=O)n(C6CCCC6)c5n4)nc3)CC2)n1 (stereo not shown) [CPD-14, 2-((5-(2-(4-(6-((6-Acetyl-8-cyclopentyl-5-methyl-7-oxo-7,8-dihydropyrido[2,3-d]pyrimidin-2-yl)amino)pyridin-3-yl)piperazin-1-yl)propanamido)pentyl)amino)-N-(6-(dimethylamino)pyridazin-3-yl)-6-(methylamino)nicotinamide] | 50 to 80 | 50 to 80 | 50 to 100 | ≤ 10 | < 50
9 | CC(=O)c1c(C)c2cnc(Nc3ccc(N4CCN(CC(=O)NCCCCCNc5nc(C)ccc5C(=O)Nc5ccc(N(C)C)nn5)CC4)cn3)nc2n(C2CCCC2)c1=O [CPD-16, 2-((5-(2-(4-(6-((6-Acetyl-8-cyclopentyl-5-methyl-7-oxo-7,8-dihydropyrido[2,3-d]pyrimidin-2-yl)amino)pyridin-3-yl)piperazin-1-yl)acetamido)pentyl)amino)-N-(6-(dimethylamino)pyridazin-3-yl)-6-methylnicotinamide] | 50 to 80 | 50 to 80 | ≤ 50 | ≤ 10 | < 50
10 | CC(=O)c1c(C)c2cnc(Nc3ccc(N4CCN(CC(=O)NCCCCCNc5nc(NC(C)C)ccc5C(=O)Nc5ccc(N(C)C)nn5)CC4)cn3)nc2n(C2CCCC2)c1=O [CPD-18, 2-((5-(2-(4-(6-((6-Acetyl-8-cyclopentyl-5-methyl-7-oxo-7,8-dihydropyrido[2,3-d]pyrimidin-2-yl)amino)pyridin-3-yl)piperazin-1-yl)acetamido)pentyl)amino)-N-(6-(dimethylamino)pyridazin-3-yl)-6-(isopropylamino)nicotinamide] | 50 to 80 | 50 to 80 | ≤ 50 | ≤ 10 | < 50
11 | CNc1ccc(C(=O)Nc2ccc(N(C)C)nn2)c(NCCCCCNCCN2CCN(c3ccc(Nc4ncc5c(C)c(C(C)=O)c(=O)n(C6CCCC6)c5n4)nc3)CC2)n1 [CPD-21, 2-((5-((2-(4-(6-((6-Acetyl-8-cyclopentyl-5-methyl-7-oxo-7,8-dihydropyrido[2,3-d]pyrimidin-2-yl)amino)pyridin-3-yl)piperazin-1-yl)ethyl)amino)pentyl)amino)-N-(6-(dimethylamino)pyridazin-3-yl)-6-(methylamino)nicotinamide] | 50 to 80 |  | 50 to 100 | 10 to 50 | > 100
12 | CNc1ccc(C(=O)Nc2ccc(N(C)C)nn2)c(NCCCCC(C)NC(=O)CN2CCN(c3ccc(Nc4ncc5c(C)c(C(C)=O)c(=O)n(C6CCCC6)c5n4)nc3)CC2)n1 (stereo not shown) [CPD-22, 2-((5-(2-(4-(6-((6-Acetyl-8-cyclopentyl-5-methyl-7-oxo-7,8-dihydropyrido[2,3-d]pyrimidin-2-yl)amino)pyridin-3-yl)piperazin-1-yl)acetamido)hexyl)amino)-N-(6-(dimethylamino)pyridazin-3-yl)-6-(methylamino)nicotinamide] | > 80 | > 80 | ≤ 50 | ≤ 10 | 50 to 100
13 | CNc1ccc(C(=O)Nc2ccc(N(C)C)nn2)c(Nc2cnn(CCNC(=O)CN3CCN(c4ccc(Nc5ncc6c(C)c(C(C)=O)c(=O)n(C7CCCC7)c6n5)nc4)CC3)c2)n1 [CPD-24, 2-((1-(2-(2-(4-(6-((6-Acetyl-8-cyclopentyl-5-methyl-7-oxo-7,8-dihydropyrido[2,3-d]pyrimidin-2-yl)amino)pyridin-3-yl)piperazin-1-yl)acetamido)ethyl)-1H-pyrazol-4-yl)amino)-N-(6-(dimethylamino)pyridazin-3-yl)-6-(methylamino)nicotinamide] | 50 to 80 | > 80 | ≥ 100 | 10 to 50 | > 100
